Test results as given in ChEMBL document CHEMBL1201862, “PubChem BioAssay data set” (2004).
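Test compounds were applied to cells in 96-well plates for 48 hours at 5 doses. GI50 marks 50% less growth.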 Activity calls are given as the source filed them. Cut-off read from the data, not from the text of the source: active = GI50 up to about 1.1 µM and inactive = higher.

Key:
Assay in all cases: growth of human tumour cells (NCI), 48 h
[1] = system: MDA-N
[2] = system: UACC-257
[3] = system: Malme-3M
[4] = system: COLO 205
[5] = system: PC-3
[6] = system: MDA-MB-435
[7] = system: EKVX
[8] = system: Hs-578T
[9] = system: SK-OV-3
[10] = system: HOP-92
[11] = system: NCI/ADR-RES
[12] = system: SW-620
[13] = system: HOP-62
[14] = system: SF-539
[15] = system: OVCAR-4
[16] = system: MCF7
[17] = system: A549
[18] = system: DMS-273
[19] = system: HCC 2998
[20] = system: SR

Measured: GI50

Cc1c(/N=C/C=C/c2ccccc2)c(=O)n(-c2ccccc2)n1C
inactive: [1] 18.5 µM | [2] 45.3 µM | [3] 25.4 µM | [4] > 100 µM | [5] 33 µM | [6] 34.4 µM | [7] 27.2 µM | [8] 23.1 µM | [9] > 100 µM | [10] 30.3 µM | [11] 25.9 µM | [12] 23 µM | [13] 33.3 µM | [14] 23 µM | [15] 13 µM | [16] 21.9 µM | [17] > 100 µM

CN(C)CCCNC(=O)c1cccc2ccccc12
inactive: [18] > 100 µM | [2] > 100 µM | [3] > 100 µM | [9] > 100 µM | [12] > 100 µM | [14] > 100 µM | [15] > 100 µM | [17] > 100 µM

CN1C=C(C(N)=O)C2CC(O)[C@@](NC(=O)CS(N)(=O)=O)(C(=O)O)C2C1 (stereo partly specified)
inactive: [18] 3.21 µM | [2] 5.24 µM | [3] 4.57 µM | [4] 14.1 µM | [19] 18.5 µM | [7] 4.19 µM | [9] 2.47 µM | [20] 2.02 µM | [10] 1.49 µM | [12] 3.87 µM | [13] 1.82 µM | [14] 2.05 µM | [15] 2.09 µM | [17] 3.25 µM

O=C(Nc1ccn(CCO)c(=O)n1)c1ccccc1
inactive: [18] > 100 µM | [2] > 100 µM | [3] > 100 µM | [4] > 100 µM | [7] > 100 µM | [9] > 100 µM | [20] > 100 µM | [10] > 100 µM | [12] > 100 µM | [13] > 100 µM | [14] > 100 µM | [15] > 100 µM | [17] > 100 µM

CCOC(=O)NC(Nc1cc(Cl)ccc1OC)(C(F)(F)F)C(F)(F)F
inactive: [1] > 100 µM | [2] > 100 µM | [3] > 100 µM | [6] > 100 µM | [19] > 100 µM | [7] > 100 µM | [8] > 100 µM | [9] > 100 µM | [20] 74.3 µM | [10] > 100 µM | [12] > 100 µM | [13] > 100 µM | [14] > 100 µM | [16] > 100 µM | [17] > 100 µM

S=C1SC(=N\c2ccccc2)/C(=N/c2ccccc2)N1c1ccc2ccccc2c1
inactive: [1] > 100 µM | [3] > 100 µM | [4] > 100 µM | [5] > 100 µM | [6] > 100 µM | [19] > 100 µM | [8] 64.1 µM | [9] > 100 µM | [20] > 100 µM | [11] > 100 µM | [13] > 100 µM | [15] 80.7 µM | [16] > 100 µM

CCCO/N=[N+](\[O-])N(CC)CC
inactive: [18] > 100 µM | [2] > 100 µM | [19] > 100 µM | [7] > 100 µM | [9] > 100 µM | [20] > 100 µM | [10] > 100 µM | [12] > 100 µM | [13] > 100 µM | [14] > 100 µM | [17] > 100 µM

C=CCN(CCN(CC=C)S(=O)(=O)c1ccc(C)cc1)S(=O)(=O)c1ccc(C)cc1
inactive: [1] > 100 µM | [2] > 100 µM | [4] > 100 µM | [5] > 100 µM | [6] > 100 µM | [19] > 100 µM | [8] > 100 µM | [20] > 100 µM | [10] 95.9 µM | [11] > 100 µM | [12] > 100 µM | [15] > 100 µM | [16] > 100 µM | [17] > 100 µM

O=C(O)C1(Cc2ccccc2)Cc2ccccc2C1
inactive: [1] > 100 µM | [2] > 100 µM | [3] > 100 µM | [4] > 100 µM | [5] > 100 µM | [6] > 100 µM | [19] > 100 µM | [7] > 100 µM | [8] 94.4 µM | [9] > 100 µM | [20] > 100 µM | [11] > 100 µM | [12] > 100 µM | [13] > 100 µM | [14] > 100 µM | [15] > 100 µM | [16] > 100 µM | [17] > 100 µM

Nc1nc(=O)[nH]c2c1cnn2COCCO
inactive: [18] > 100 µM | [2] > 100 µM | [3] > 100 µM | [4] > 100 µM | [7] > 100 µM | [20] > 100 µM | [10] > 100 µM | [12] > 100 µM | [14] > 100 µM | [15] > 100 µM | [17] > 100 µM

C[C@H]1SC(c2ccc(Cl)cc2Cl)N(NC(=O)c2ccncc2)C1=O (stereo partly specified)
inactive: [1] 23 µM | [3] 64.1 µM | [4] 37.7 µM | [5] 15.1 µM | [6] 23.9 µM | [7] 31.1 µM | [8] 64.7 µM | [9] 65.2 µM | [20] 55.8 µM | [10] 45.7 µM | [11] 36.9 µM | [13] 33.7 µM | [16] 8.59 µM

C[N+](C)(CCCCCC[N+](C)(C)CCCN1C(=O)c2cccc3cccc(c23)C1=O)CCCN1C(=O)c2cccc3cccc(c23)C1=O
inactive: [1] > 100 µM | [2] > 100 µM | [3] > 100 µM | [4] > 100 µM | [5] > 100 µM | [6] > 100 µM | [7] > 100 µM | [8] > 100 µM | [9] > 100 µM | [20] > 100 µM | [10] > 100 µM | [11] > 100 µM | [12] > 100 µM | [14] > 100 µM | [15] > 100 µM | [16] > 100 µM | [17] > 100 µM

COc1ccc(C2C(Cl)C(=O)N2NC(=O)c2ccccc2O)cc1OC (stereo unspecified)
inactive: [18] > 100 µM | [2] 93.8 µM | [3] 65.3 µM | [9] 90.2 µM | [14] > 100 µM | [15] 75.9 µM | [17] > 100 µM
